Molecules are shown by their SMILES. Calls of active or inactive are those of the source. No stated cut-off is given here; in the data, actives have a measured IC50 and inactives only a lower limit.

In the assay the target is Envelope glycoprotein gp160 (Human immunodeficiency virus 1, UniProt Q6QLK5). Nature of the assay: inhibitors of HIV fusion peptide binding, primary screen, biochemical, uHTS, fluorescence dequenching (AID 1986).
Chain of Envelope glycoprotein gp160 (Q6QLK5 whole entry, the tested form may be a part): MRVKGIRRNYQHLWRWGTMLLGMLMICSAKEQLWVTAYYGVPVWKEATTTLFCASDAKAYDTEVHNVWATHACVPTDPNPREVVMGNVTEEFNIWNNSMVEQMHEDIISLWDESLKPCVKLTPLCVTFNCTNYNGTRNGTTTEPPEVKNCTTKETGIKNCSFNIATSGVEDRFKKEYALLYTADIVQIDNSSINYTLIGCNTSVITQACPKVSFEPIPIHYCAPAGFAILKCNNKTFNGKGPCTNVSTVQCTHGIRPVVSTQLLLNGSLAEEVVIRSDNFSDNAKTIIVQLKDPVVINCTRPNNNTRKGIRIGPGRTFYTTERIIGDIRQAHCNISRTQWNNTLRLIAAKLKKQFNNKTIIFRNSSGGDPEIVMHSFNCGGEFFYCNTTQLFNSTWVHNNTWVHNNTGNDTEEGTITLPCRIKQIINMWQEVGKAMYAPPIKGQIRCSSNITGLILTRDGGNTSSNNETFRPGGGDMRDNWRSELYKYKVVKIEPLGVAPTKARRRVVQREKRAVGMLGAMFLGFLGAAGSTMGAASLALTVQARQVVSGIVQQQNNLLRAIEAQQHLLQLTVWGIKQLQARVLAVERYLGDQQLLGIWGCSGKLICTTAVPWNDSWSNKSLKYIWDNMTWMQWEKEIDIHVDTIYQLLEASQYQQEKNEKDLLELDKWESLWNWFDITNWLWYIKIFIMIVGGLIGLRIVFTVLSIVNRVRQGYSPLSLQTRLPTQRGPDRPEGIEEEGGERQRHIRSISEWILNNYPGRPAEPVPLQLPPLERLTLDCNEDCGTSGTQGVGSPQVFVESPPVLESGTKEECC
As a reminder, the IC50 is the concentration at which inhibition is half-maximal. In the case of `CC(C)(C)c1ccc(OCC(=O)NNC(=S)NC(=O)c2ccccc2[N+](=O)[O-])c(Br)c1`, the IC50 was 28.7 µM (active).
In the case of `NS(=O)(=O)c1cc(C(=O)NC2CCSc3ccccc32)ccc1Cl` (centres undefined), the IC50 is 8.22 µM (active).
Regarding `O=C(O)CN1C(=O)/C(=C\c2cc(Br)ccc2OCc2ccc(Cl)cc2Cl)SC1=S`, the IC50 was 13.1 µM (active).
Take `CCCCCC(=O)Cc1cc(O)cc2c1C(=O)Oc1cc(O)c(C(=O)O)c(CCCCC)c1O2` [PHYSODIC ACID]: the IC50 is 4.1 µM (active).

Values taken from ChEMBL document CHEMBL1201862, “PubChem BioAssay data set” (2004).
